From patent US10611750B2, “Tetrahydroquinoline compositions as bet bromodomain inhibitors” (FORMA Therapeutics, Inc., priority 2013, dated 2020)
Read-outs that look alike come from different tables or passages of the source.

Assays:
[1] = target: T1, BRD4 Bromodomain 1 (BRD4 BD1) (Homo sapiens, UniProt O60885); assay: AlphaScreen binding assay, BRD4 BD1; conditions: His-tagged BRD4 BD1 50 nM, biotinylated H4 (1-21) K5/8/12/16 tetra-acetylated peptide 50 nM, compounds listed under IC50 range headings
T1 construct: 44-168 and BRD4 BD2
Outline: (§1)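 An AlphaScreen competition format was used with His-BRD4 BD1 or BD2 and biotin-H4 K5/8/12/16-acetyl peptide, each at matched final levels of 50 nM (BD1) or 100 nM (BD2). Incubation in HEPES/NaCl buffer with 0.1% BSA and 0.01% Triton X-100 ran ≥1 h before IC50 determination.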

[2] = target: T2, BRD4 Bromodomain 2 (BRD4 BD2) (Homo sapiens, UniProt O60885); assay: AlphaScreen binding assay, BRD4 BD2; conditions: His-tagged BRD4 BD2 100 nM, biotinylated H4 (1-21) K5/8/12/16 tetra-acetylated peptide 100 nM, compounds listed under IC50 range headings
T2 construct: 333-460 were cloned, expressed, and purified to homogeneity
Outline: as §1

[3] = system: acute myelocytic leukemia (AML) cell line MV4-11; assay: Oncology cell growth assay (3-day proliferation, CellTiter-Glo); type: cell-based; conditions: Homo sapiens, MV4-11 cells, 3000 cells/well, compounds listed under IC50 range headings, read-out: MV411 IC50 (gIC50, inhibition of proliferation)
Outline: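 MV4-11 AML cells (RPMI 1640, 10% FBS) plated at 3000 cells/well and exposed 72 h to compound at final 10 to 0.0045 μM (3-fold series). Viability read by CellTiter-Glo luminescence; gIC50 from four-parameter logistic fit between DMSO control and no-cell background.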

Compound	IC50 [1] [nM]	IC50 [2] [nM]	IC50 ([3]; MV4-11, 72 h) [nM]	IC50 ([3]; 72 hours) [nM]
COC(=O)N1c2ccc(-c3cnn(C4CN(C)C4)c3)c(Oc3ccc(F)cc3)c2CC[C@@H]1C [I-282, Methyl (S)-5-(4-fluorophenoxy)-2-methyl-6-(1-(1-methylazetidin-3-yl)-1H-pyrazol-4-yl)-3,4-dihydroquinoline-1(2H)-carboxylate]	100 to 1000	< 50	< 500	
COC(=O)N1c2ccc(-c3cnn(C4CN(C)C4)c3)c(OC3CCC3)c2CC[C@@H]1C [I-284, Methyl (S)-5-cyclobutoxy-2-methyl-6-(1-(1-methylazetidin-3-yl)-1H-pyrazol-4-yl)-3,4-dihydroquinoline-1(2H)-carboxylate]	1000 to 10000	50 to 500	500 to 1000	
COC(=O)N1c2ccc(-c3cnn(C4CCN(C)CC4)c3)c(OC3CCC3)c2CC[C@@H]1C [I-285, Methyl (S)-5-cyclobutoxy-2-methyl-6-(1-(1-methylpiperidin-4-yl)-1H-pyrazol-4-yl)-3,4-dihydroquinoline-1(2H)-carboxylate]	100 to 1000	< 50	< 500	
CC(=O)N1c2ccc(-c3cnn(C4CC4)c3)c(Oc3ncccc3C)c2CC[C@@H]1C [I-286, (S)-1-(6-(1-cyclopropyl-1H-pyrazol-4-yl)-2-methyl-5-(3-methylpyridin-2-yloxy)-3,4-dihydroquinolin-1 (2H)-yl)ethanone]	1000 to 10000	50 to 500	< 500	
CC(=O)N1c2ccc(-c3cnn(C4CC4)c3)c(Oc3ccc(C)cn3)c2CC[C@@H]1C [I-287, (S)-1-(6-(1-cyclopropyl-1H-pyrazol-4-yl)-2-methyl-5-(5-methylpyridin-2-yloxy)-3,4-dihydroquinolin-1(2H)-yl)ethanone]	100 to 1000	< 50	< 500	
CC(=O)N1c2ccc(-c3cnn(C4CC4)c3)c(Oc3ncc4[nH]cnc4n3)c2CC[C@@H]1C [I-289, (S)-1-(5-(7H-purin-2-yloxy)-6-(1-cyclopropyl-1H-pyrazol-4-yl)-2-methyl-3,4-dihydroquinolin-1(2H)-yl)ethanone]	1000 to 10000	50 to 500	500 to 1000	
CCCOc1c(C2CCNCC2)ccc2c1CC[C@H](C)N2C(C)=O [I-353, (S)-1-(2-methyl-6-(piperidin-4-yl)-5-propoxy-3,4-dihydroquinolin-1(2H)-yl)ethan-1-one]	≥ 10000	≥ 500	> 1000	
CCCOc1c(C2CCN(C(C)=O)CC2)ccc2c1CC[C@H](C)N2C(C)=O [I-354, (S)-1-(4-(1-acetyl-2-methyl-5-propoxy-1,2,3,4-tetrahydroquinolin-6-yl)piperidin-1-yl)ethan-1-one]	≥ 10000	≥ 500	> 1000	
CCCOc1c(C2CCN(S(C)(=O)=O)CC2)ccc2c1CC[C@H](C)N2C(C)=O [I-355, (S)-1-(2-methyl-6-(1-(methylsulfonyl)piperidin-4-yl)-5-propoxy-3,4-dihydroquinolin-1 (2H)-yl)ethan-1-one]	≥ 10000	≥ 500	> 1000	
CCCOc1c(C2CCN(C(=O)OC)CC2)ccc2c1CC[C@H](C)N2C(C)=O [I-357, methyl (S)-4-(1-acetyl-2-methyl-5-propoxy-1,2,3,4-tetrahydroquinolin-6-yl)piperidine-1-carboxylate]	≥ 10000	≥ 500		> 1000
CCCOc1c(C2CCN(CC)CC2)ccc2c1CC[C@H](C)N2C(C)=O [I-358, (S)-1-(6-(1-ethylpiperidin-4-yl)-2-methyl-5-propoxy-3,4-dihydroquinolin-1(2H)-yl)ethan-1-one]	≥ 10000	≥ 500	> 1000	
CC(=O)N1c2ccc(-c3cnn(C4CCNCC4)c3)c(Nc3ccccc3)c2CC[C@@H]1C [I-359, (S)-1-(2-methyl-5-(phenylamino)-6-(1-(piperidin-4-yl)-1H-pyrazol-4-yl)-3,4-dihydroquinolin-1(2H)-yl)ethan-1-one]	1000 to 10000	50 to 500		< 500
COC(=O)N1c2ccc(-c3cnn([C@@H]4CCNC[C@@H]4F)c3)c(OC3CCC3)c2CC[C@@H]1C [I-361, methyl (S)-5-cyclobutoxy-6-(1-((3S,4R)-3-fluoropiperidin-4-yl)-1H-pyrazol-4-yl)-2-methyl-3,4-dihydroquinoline-1(2H)-carboxylate]	< 100	< 50	< 500	
COC(=O)N1c2ccc(-c3cnn([C@H]4CCNC[C@H]4F)c3)c(OC3CCC3)c2CC[C@@H]1C [I-362, methyl (2S)-5-cyclobutoxy-6-{1-[(3R,4S)-3-fluoropiperidin-4-yl]-1H-pyrazol-4-yl}-2-methyl-1,2,3,4-tetrahydroquinoline-1-carboxylate]	100 to 1000	< 50	< 500	
COC(=O)N1c2ccc(-c3cnn([C@H]4CCNC[C@@H]4F)c3)c(OC3CCC3)c2CC[C@@H]1C [I-363, methyl (2S)-5-cyclobutoxy-6-{1-[(3S,4S)-3-fluoropiperidin-4-yl]-1H-pyrazol-4-yl}-2-methyl-1,2,3,4-tetrahydroquinoline-1-carboxylate]	100 to 1000	< 50	< 500	
COC(=O)N1c2ccc(-c3cnn([C@H]4CCNC[C@@H]4F)c3)c(Oc3ccc(F)cc3)c2CC[C@@H]1C [I-364, methyl (2S)-5-(4-fluorophenoxy)-6-{1-[(3S,4S)-3-fluoropiperidin-4-yl]-1H-pyrazol-4-yl}-2-methyl-1,2,3,4-tetrahydroquinoline-1-carboxylate]	100 to 1000	< 50	< 500	
COC(=O)N1c2ccc(-c3cnn([C@@H]4CCNC[C@@H]4F)c3)c(Oc3ccc(F)cc3)c2CC[C@@H]1C [I-365, methyl (2 S)-5-(4-fluorophenoxy)-6-{1-[(3S,4R)-3-fluoropiperidin-4-yl]-1H-pyrazol-4-yl}-2-methyl-1,2,3,4-tetrahydroquinoline-1-carboxylate]	100 to 1000	< 50	< 500	
COC(=O)N1c2ccc(-c3cnn([C@H]4CCNC[C@H]4F)c3)c(Oc3ccc(F)cc3)c2CC[C@@H]1C [I-366, methyl (2 S)-5-(4-fluorophenoxy)-6-{1-[(3R,4S)-3-fluoropiperidin-4-yl]-1H-pyrazol-4-yl}-2-methyl-1,2,3,4-tetrahydroquinoline-1-carboxylate]	100 to 1000	< 50	< 500	
CCCOc1c(-c2cnn(C3CC3)c2)ccc2c1CC[C@H](C)N2C(C)=O [I-387]	100 to 1000	< 50	< 500	
CC(=O)N1c2ccc(-c3cnn(C4CC4)c3)c(OC3CCC3)c2CC[C@@H]1C [I-389]	100 to 1000	< 50	< 500	
CC(=O)N1c2ccc(-c3cnn(C4CC4)c3)c(OCC3CC3)c2CC[C@@H]1C [I-390]	100 to 1000	< 50	< 500	

The next lines start with results.

IC50 [1] [nM]	IC50 [2] [nM]	IC50 ([3]; MV4-11, 72 h) [nM]	Compound	IC50 ([3]; 72 hours) [nM]
100 to 1000	< 50	< 500	COC(=O)N1c2ccc(-c3cnn(C4CCN(C)CC4)c3)c(Oc3ccc(F)cc3)c2CC[C@@H]1C [I-283, Methyl (S)-5-(4-fluorophenoxy)-2-methyl-6-(1-(1-methylpiperidin-4-yl)-1H-pyrazol-4-yl)-3,4-dihydroquinoline-1(2H)-carboxylate]	
100 to 1000	< 50	< 500	CC(=O)N1c2ccc(-c3cnn(C4CC4)c3)c(Oc3ccc(Cl)cn3)c2CC[C@@H]1C [I-288, (S)-1-(5-(5-chloropyridin-2-yloxy)-6-(1-cyclopropyl-1H-pyrazol-4-yl)-2-methyl-3,4-dihydroquinolin-1(2H)-yl)ethanone]	
1000 to 10000	< 50	< 500	C/C=C/n1c(Oc2c(-c3cnn(C4CC4)c3)ccc3c2CC[C@H](C)N3C(C)=O)nc2ccccc21 [I-351, (S,E)-1-(6-(1-cyclopropyl-1H-pyrazol-4-yl)-2-methyl-5-(1-(prop-1-enyl)-1H-benzo[d]imidazol-2-yloxy)-3,4-dihydroquinolin-1(2H)-yl)ethanone]	
≥ 10000	50 to 500	> 1000	CCCOc1c(C2CCN(C(=O)NCC)CC2)ccc2c1CC[C@H](C)N2C(C)=O [I-356, (S)-4-(1-acetyl-2-methyl-5-propoxy-1,2,3,4-tetrahydroquinolin-6-yl)-N-ethylpiperidine-1-carboxamide]	
100 to 1000	50 to 500	500 to 1000	CC(=O)N1c2ccc(-c3cnn(C4CC4)c3)c(OCCNS(C)(=O)=O)c2CC[C@@H]1C [I-382]	
< 100	< 50	< 500	CC(=O)N1c2ccc(-c3cnn(C4CC4)c3)c(OCC3CCCC3)c2CC[C@@H]1C [I-385]	
100 to 1000	50 to 500	500 to 1000	CC(=O)N1c2ccc(-c3cnn(C4CC4)c3)c(OC(C)C)c2CC[C@@H]1C [I-388]	
100 to 1000	50 to 500	< 500	CC(=O)N1c2ccc(-c3cnn(C4CC4)c3)c(OCC3CCC3)c2CC[C@@H]1C [I-392]	
100 to 1000	50 to 500	500 to 1000	CC(=O)N1c2ccc(-c3cnn(C4CC4)c3)c(OCC3(C)COC3)c2CC[C@@H]1C [I-395]	
